Data reported in patent EP0777471B1, “INHIBITION OF LEUKOTRIENE BIOSYNTHESIS WITH UREA DERIVATIVES” (MINNESOTA MINING AND MANUFACTURING COMPANY, priority 1994, dated 1996).
Where “and” joins values, the source holds several entries; their conditions need not be identical. Equal entries are not always repeated. Where two headings read alike, the source gives them in different places.

Legend:
[1] = test system: production of Leukotriene B4; assay: Rat ex vivo Leukotriene B4 inhibition (oral dosing, blood challenged with A23187); type: in vivo, Rats; conditions: two hours post dose
Description: The test method described below measures the ability of a compound when administered orally to rats to inhibit the production of Leukotriene B4 in their blood which is drawn and challenged.
Rats (CD, male, non-fasted, 250 g) are lightly anesthetized with carbon dioxide and an approximately 0.75 mL sample of whole blood is obtained via cardiac puncture. The sample is dispensed into 12 X 75 mm polypropylene tubes containing 8-10 µL of 10,000 units/mL heparin, mixed and then maintained on ice. The rats are allowed to recover approximately one hour then dosed orally with compound dissolved in PEG 400 at a 5 mL/Kg volume. Five (5) rats are utilized per group. Two (2) hours post dose the rats are again anesthetized with carbon dioxide and the blood sampled again via cardiac puncture.
Duplicate 200 µL portions of blood are added to 1.0 mL polypropylene tubes. A 10 µL portion of 1mM A23187 Calcium Ionophore in dimethyl sulfoxide/Tris buffer is added to each tube. The tubes are gently vortexed then incubated in a 37°C water bath for 30 minutes. The tubes are then centrifuged at 4000 rpm for 10 minutes. 50 µL portions of plasma are transferred to 1.0 mL tubes containing 200 µL of methanol. The tubes are vortexed then placed in the freezer overnight.
The tubes are removed from the freezer then centrifuged at 4000 rpm for 10 minutes. […] portions of the methanol/plasma supernatant and 10 µL methanol dilutions of LTB4 standard curve are transferred to 96 well v-bottom microtiter plates. The plates are vacuum dried at 40°C. A 40 µL portion of LTB4 radioimmunoassay buffer is added to each well. The plate is bath sonicated for 5 minutes then assayed according to the manufacturer's (Advanced Magnetics; Cambridge, MA) instructions. Percent inhibition values are obtained by comparing the level of LTB4 in the post-dose samples to the level in the pre-dose samples according to the equation below. % Inhibition =((LTB4 pre-dose) - (LTB4 post-dose))/((LTB4 pre-dose))X 100 [formula]

[2] = test system: production of Leukotriene C4 in mouse peritoneal macrophages; assay: In vitro mouse peritoneal macrophage Leukotriene C4 inhibition (zymosan-stimulated, LTC4 radioimmunoassay); type: cell-based; conditions: Zymosan 50 µg/mL
Description: The test method described below measures the ability of compounds to inhibit the production of Leukotriene C4 in mouse peritoneal macrophages.
Mice (female, CD-1, weighing 25 g) are euthanized by exposure to carbon dioxide. The peritoneal cavity is exposed by peeling back the abdominal skin. A 5 mL portion of media (M199 containing 1% fetal bovine serum, 100 units/mL of penicillin, 100 µg/mL of streptomycin, 20 units/mL of heparin and no glutamine) is injected into the exposed peritoneal cavity of each mouse. The lavage fluid is removed and pooled to yield approximately1 X 10^6 macrophages/mL. A 2 mL portion of lavage fluid is added to each well of a 24 well sterile multidish and the macrophages are allowed to adhere to the plate for 2 hours at 37°C in a 5% carbon dioxide atmosphere. The media is removed and each well is washed with 2 mL of phosphate buffered saline (PBS). A 1 mL portion of media, without heparin, but containing 5 µCi/mL of 3H-myoinositol is added to each well and the plates are incubated overnight at 37°C in a 5% carbon dioxide atmosphere. The media is removed and the cells are washed twice with 2 mL portions of PBS. A 1 mL portion of Puck's saline formulation A containing 1 mM calcium chloride, 1 mM magnesium chloride and 10 mM lithium chloride is added to each well. (The Puck's formulation is made first as a 10X solution which contains 4 g of potassium chloride, 80 g of sodium chloride and 10 g of glucose per liter. The Puck's saline formulation A is made using 10 mL of the 10X Puck's formulation, 0.47 mL of 7.5% sodium bicarbonate and 2 mL of 1M N-2-hydroxyethylpiperazine-N'-2-ethanesulfonic acid per 100 mL.)
Compounds are dissolved in dimethyl sulfoxide. Compounds are tested at concentrations of 10, 1 and 0.1 µM. Each concentration is tested in duplicate.
A 1 µL portion of compound solution or vehicle (DMSO) is added to each well and the plates are incubated for 15 minutes at 37°C in a 5% carbon dioxide atmosphere. Zymosan is then added to provide a final concentration of 50 µg/mL in each well and the plate is incubated for 1 to 2 hours at 37°C in a 5% carbon dioxide atmosphere.
Following incubation 200 µL portions of media are transferred to 12 X 75 mm tubes. The tubes are either assayed immediately or stored at -20°C until they can be assayed.
The media is assayed for the presence of Leukotriene C4 by radioimmunoassay which is performed according to the manufacturer's (Advanced Magnetics; Cambridge, MA) instructions.

[3] = test system: production of Leukotriene B4 (LTB4); assay: Dog ex vivo Leukotriene B4 inhibition (oral dosing, blood challenged with calcium ionophore); type: in vivo, beagle dogs; conditions: each entry one dog, negative = stimulation of LTB4 production; for % Inhibition 1 hour / % Inhibition 2 hour / % Inhibition 4 hour / % Inhibition 6 hour: 5 mg/Kg; for % Inhibition 4 hour: 4 hour post dose; for % Inhibition 6 hour: 6 hour post dose; for inhibition at 5 mg/kg: Canis lupus familiaris, po
Description: The test method described below measures the ability of a compound when administered orally to dogs to inhibit the production of Leukotriene B4 (LTB4) in their blood which is drawn and challenged at selected time points.
The test is conducted in beagle dogs (male and female; about 10 Kg). Prior to starting, the neck area of the beagle is shaved to allow easy access to the jugular vein. A 3-4 mL sample of blood is drawn from the jugular vein into a heparinized vacutainer. The dog is then dosed using a tube long enough to reach its stomach. The compound is dissolved in PEG 400 at a concentration such that the appropriate dose can be administered in approximately 5 mL. Immediately after the compound is given, a flush using 5 mL of vehicle is given to rinse the dosing tube. At selected time points following the dose, a 3-4 mL sample of blood is drawn.
The blood samples that have been drawn are challenged as soon as possible. A 0.5 mL portion of blood is aliquoted into 3 tubes (1 mL microtiter tubes). A 1 µL portion of 25 mM calcium ionophore in dimethyl sulfoxide is added to 2 of the tubes. A 1 µL portion of dimethyl sulfoxide is added to the third tube. The tubes are lightly mixed then placed in a 37°C water bath for 30 minutes. The tubes are centrifuged at 11,000 rpm for 3 minutes and the plasma supernatant is transferred to clean tubes. A 50 µL portion of this plasma is added to a I mL microtiter tube containing 200 µL of methanol. The tubes are placed in the freezer at -20°C for at least 1 hour then centrifuged at 2000 rpm for 10 minutes. A 10 µL portion of the methanol supematant is dried under vacuum at ambient temperature and then reconstituted in LTB4 buffer. The amount of LTB4 in the sample is determined by radioimmunoassay performed according to the manufacturer's (Advanced Magnetics; Cambridge, MA) instructions. Percent inhibition values are obtained by comparing the level of LTB4 in the post-dose sample to the level in the pre-dose sample according to the equation below. % Inhibition =((LTB4 predose) - (LTB4 postdose))/((LTB4 predose))X 100 [formula]
A number of the compounds that are useful in the practice of the method of the invention were tested. The results are shown in Table 15 below where each entry represents the results from one dog. A negative number indicates stimulation of LTB4 production. All compounds were tested at a dose of 5 mg/Kg.

[4] = 1 h, 1 hour post dose, read-out: % Inhibition 1 hour
[5] = 2 h, 2 hour post dose, read-out: % Inhibition 2 hour

CCCCc1ccc(NC(=O)N(C)O)cc1 [Compound 12, 3-(4-butylphenyl)-1-hydroxy-1-methylurea]
%I ([1]; 50 mg/Kg): 42%

CN(O)C(=O)Nc1ccc(Oc2ccccc2)cc1 [Compound 14, 1-hydroxy-1-methyl-3-(4-phenoxyphenyl)urea]
IC50 [2]: < 1 µM

CCCCc1ccc(NC(=O)N(O)C(C)C)cc1 [Compound 27, 3-(4-butylphenyl)-1-hydroxy-1-(1-methylethyl)urea]
%I ([1]; 10 mg/Kg): 23%
%I ([1]; 25 mg/Kg): 5%
%I ([1]; 50 mg/Kg): 53% and 75%

COc1ccc(OC)c(NC(=O)N(O)C(C)C)c1 [Compound 28, 3-(2,5-dimethoxyphenyl)-1-hydroxy-1-(1-methylethyl)urea]
%I ([1]; 50 mg/Kg): 29%

COc1ccccc1NC(=O)N(O)C(C)C [Compound 29, 1-hydroxy-3-(2-methoxyphenyl)-1-(1-methylethyl)urea]
%I ([1]; 50 mg/Kg): 61%

CCC(CC)N(O)C(=O)Nc1ccc(Br)cc1 [Compound 41, 3-(4-Bromophenyl)-1-(1-ethylpropyl)-1-hydroxyurea]
%I ([1]; 50 mg/Kg): 14%

CCC(CC)N(O)C(=O)Nc1ccccc1 [Compound 42, 1-(1-Ethylpropyl)-1-hydroxy-3-phenylurea]
%I ([1]; 50 mg/Kg): 4%
% Inhibition 1 hour ([3]; 1 hour post dose): 98% and 100%
% Inhibition 2 hour ([3]; 2 hour post dose): 100%
% Inhibition 4 hour [3]: 97% and 100% and -91%
% Inhibition 6 hour [3]: 78% and 85% and 91% and -150%
inhibition at 5 mg/kg [3, 4]: 99%
inhibition at 5 mg/kg [3, 5]: 99%

CCOCCN(O)C(=O)Nc1ccccc1 [Compound 45, 1-(2-ethoxyethyl)-1-hydroxy-3-phenylurea]
%I ([1]; 50 mg/Kg): 6%

O=C(Nc1ccccc1)N(O)C1CCCC1 [Compound 46, 1-cyclopentyl-1-hydroxy-3-phenylurea]
%I ([1]; 50 mg/Kg): 17%
% Inhibition 1 hour ([3]; 1 hour post dose): 77%
% Inhibition 2 hour ([3]; 2 hour post dose): 58%
% Inhibition 4 hour [3]: 11% and 2%
% Inhibition 6 hour [3]: -23% and 46%
inhibition at 5 mg/kg [3, 4]: 80%
inhibition at 5 mg/kg [3, 5]: 64%

CCCCC(CC)CN(O)C(=O)Nc1ccccc1 (centres unmarked) [Compound 47, 1-(2-ethylhexyl)-1-hydroxy-3-phenylurea]
%I ([1]; 50 mg/Kg): 16%

CC(C)(C)CCN(O)C(=O)Nc1ccccc1 [Compound 48, 1-(3,3-dimethylbutyl)-1-hydroxy-3-phenylurea]
%I ([1]; 50 mg/Kg): 2%

CCCCCN(O)C(=O)Nc1ccc(CCCC)cc1 [Compound 57, 3-(4-Butylphenyl)-1-hydroxy-1-pentylurea]
%I ([1]; 50 mg/Kg): 35%

CC(C)N(O)C(=O)Nc1cccc(S(C)(=O)=O)c1 [Compound 60, 1-Hydroxy-1-(1-methylethyl)-3-[3-(methylsulfonyl)phenyl]urea]
% Inhibition 1 hour ([3]; 1 hour post dose): 97%
% Inhibition 2 hour ([3]; 2 hour post dose): 52%
% Inhibition 4 hour [3]: -79% and 49%
% Inhibition 6 hour [3]: -95% and 76%
inhibition at 5 mg/kg [3, 4]: 100%

CC(C)N(O)C(=O)Nc1cccc([S+](C)[O-])c1 (centres unmarked) [Compound 61, 1-Hydroxy-1-(1-methylethyl)-3-[3-(methylsulfinyl)phenyl]urea]
% Inhibition 2 hour ([3]; 2 hour post dose): 99%
% Inhibition 4 hour [3]: 29% and -2%
% Inhibition 6 hour [3]: -32% and 22%
inhibition at 5 mg/kg [3, 4]: 100%
inhibition at 5 mg/kg [3, 5]: 100%

CN(O)C(=O)Nc1ccc([S+](C)[O-])cc1 (centres unmarked) [Compound 64, 1-Hydroxy-1-methyl-3-[4-(methylsulfinyl)phenyl]urea]
%I ([1]; 50 mg/Kg): 88%

CN(O)C(=O)Nc1ccc(S(C)(=O)=O)cc1 [Compound 65, 1-Hydroxy-1-methyl-3-[4-(methylsulfonyl)phenyl]urea]
%I ([1]; 50 mg/Kg): 93%

COc1cc(NC(=O)N(O)C(C)C)cc(OC)c1OC [Compound 66, 1-Hydroxy-1-(1-methylethyl)-3-(3,4,5-trimethoxyphenyl)urea]
%I ([1]; 50 mg/Kg): 61%

CCCC(C)N(O)C(=O)Nc1ccccc1 (centres unmarked) [Compound 68, 1-Hydroxy-1-(1-methylbutyl)-3-phenylurea]
IC50 [2]: < 1 µM

CCC(CC)N(O)C(=O)Nc1ccc(Oc2ccccc2)cc1 [Compound 72, 1-Hydroxy-1-(1-ethylpropyl)-3-(4-phenoxyphenyl)urea]
IC50 [2]: < 1 µM

CCC(CC)N(O)C(=O)Nc1cc(C(F)(F)F)cc(C(F)(F)F)c1 [Compound 73, 1-Hydroxy-1-(1-ethylpropyl)-3-(3,5-bis(trifluoromethyl)phenyl)urea]
IC50 [2]: < 1 µM

CCC(CC)N(O)C(=O)Nc1ccc(C(=O)c2ccccc2)cc1 [Compound 79, 1-Hydroxy-1-(1-ethylpropyl)-3-(4-benzoylphenyl)urea]
IC50 [2]: < 1 µM

CCC(CC)N(O)C(=O)Nc1ccc(OCc2ccccc2)cc1 [Compound 80, 1-Hydroxy-1-(1-ethylpropyl)-3-(4-benzyloxyphenyl)urea]
IC50 [2]: < 1 µM

CCC(CC)N(O)C(=O)Nc1ccc(OCC2CCCCC2)cc1 [Compound 81, 1-Hydroxy-1-(1-ethylpropyl)-3-[4-(cyclohexylmethoxy)phenyl]urea]
IC50 [2]: < 1 µM

CCC(CC)N(O)C(=O)Nc1ccc(OCCCc2ccccc2)cc1 [Compound 82, 1-Hydroxy-1-(1-ethylpropyl)-3-[4-(3-phenylpropyloxy)phenyl]urea]
IC50 [2]: < 1 µM

CCC(CC)N(O)C(=O)Nc1ccc(-c2ccccc2)cc1 [Compound 83, 1-Hydroxy-1-(1-ethylpropyl)-3-(biphenyl-4-yl)urea]
IC50 [2]: < 1 µM
